ChEMBL document CHEMBL1201862, “PubChem BioAssay data set” (2004)
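96-well plates; 48 h exposure; 5 concentrations. Endpoints by linear interpolation between flanking doses. Not reached: highest tested concentration assigned. Abbreviation: GI50, concentration required for 50% inhibition of growth.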 Active and inactive are the calls of the source. Cut-off read from the data, not from the text of the source: active = GI50 up to about 1.1 µM and inactive = higher.

Assays:
Assay in all cases: NCI-60 cell line screen, 48 h
[1] = system: SNB-78
[2] = system: ACHN
[3] = system: OVCAR-8
[4] = system: HOP-62
[5] = system: Malme-3M
[6] = system: OVCAR-3
[7] = system: RPMI-8226
[8] = system: SW-620
[9] = system: M14
[10] = system: EKVX
[11] = system: SF-295
[12] = system: HOP-18
[13] = system: SF-539
[14] = system: HCC 2998
[15] = system: OVCAR-5
[16] = system: NCI-H522
[17] = system: K562
[18] = system: HT-29
[19] = system: RXF 393
[20] = system: SF-268
[21] = system: HCT-15
[22] = system: SNB-19
[23] = system: MOLT-4
[24] = system: UACC-62
[25] = system: A498
[26] = system: 786-0
[27] = system: M19-MEL
[28] = system: SK-OV-3
[29] = system: SK-MEL-28
[30] = system: HOP-92
[31] = system: KM12
[32] = system: NCI-H226
[33] = system: OVCAR-4
[34] = system: KM-20L2
[35] = system: SR
[36] = system: NCI-H23
[37] = system: LOX IMVI
[38] = system: CCRF-CEM
[39] = system: IGROV-1
[40] = system: HCT-116
[41] = system: SK-MEL-2
[42] = system: DMS-114
[43] = system: COLO 205
[44] = system: NCI-H460
[45] = system: DLD-1
[46] = system: DMS-273
[47] = system: CAKI-1
[48] = system: HL-60
[49] = system: LXFL 529
[50] = system: U-251
[51] = system: UO-31
[52] = system: SK-MEL-5
[53] = system: A549
[54] = system: SN12C
[55] = system: TK-10
[56] = system: UACC-257
[57] = system: XF498
[58] = system: SNB-75
[59] = system: RXF 631

Structure (SMILES): Cc1cc2c(C)n(Cc3ccc(Cl)cc3Cl)nc2c(C#N)c1C
- GI50 [1]: 24.4 µM (inactive)
- GI50 [2]: 49 µM (inactive)
- GI50 [3]: 14.8 µM (inactive)
- GI50 [4]: 20 µM (inactive)
- GI50 [5]: 24.9 µM (inactive)
- GI50 [6]: 34.7 µM (inactive)
- GI50 [7]: 99.3 µM (inactive)
- GI50 [8]: > 100 µM (inactive)
- GI50 [9]: 49 µM (inactive)
- GI50 [10]: 57.1 µM (inactive)
- GI50 [11]: 18.2 µM (inactive)
- GI50 [12]: 40.8 µM (inactive)
- GI50 [13]: 27.2 µM (inactive)
- GI50 [14]: > 100 µM (inactive)
- GI50 [15]: > 42.1 µM (inactive)
- GI50 [16]: 38.5 µM (inactive)
- GI50 [17]: > 100 µM (inactive)
- GI50 [18]: 55.5 µM (inactive)
- GI50 [19]: 15.3 µM (inactive)
- GI50 [20]: 32.3 µM (inactive)
- GI50 [21]: > 100 µM
- GI50 [22]: 15.7 µM (inactive)
- GI50 [23]: > 100 µM (inactive)
- GI50 [24]: > 100 µM (inactive)
- GI50 [25]: 65.8 µM (inactive)
- GI50 [26]: 13.6 µM (inactive)
- GI50 [27]: 73.8 µM (inactive)
- GI50 [28]: 19.1 µM (inactive)
- GI50 [29]: 36 µM (inactive)
- GI50 [30]: 13.6 µM (inactive)
- GI50 [31]: > 100 µM (inactive)
- GI50 [32]: > 42.2 µM (inactive)
- GI50 [33]: 9.89 µM (inactive)
- GI50 [34]: 36.5 µM (inactive)
- GI50 [35]: > 100 µM (inactive)
- GI50 [36]: 41.7 µM (inactive)
- GI50 [37]: 49.5 µM (inactive)
- GI50 [38]: > 100 µM (inactive)
- GI50 [39]: 41 µM (inactive)
- GI50 [40]: 29.8 µM (inactive)
- GI50 [41]: > 61.4 µM (inactive)
- GI50 [42]: 36.4 µM (inactive)
- GI50 [43]: > 95.5 µM (inactive)
- GI50 [44]: 35.9 µM (inactive)
- GI50 [45]: > 100 µM (inactive)
- GI50 [46]: 50.8 µM (inactive)
- GI50 [47]: 41.8 µM (inactive)
- GI50 [48]: > 100 µM (inactive)
- GI50 [49]: 59.6 µM (inactive)
- GI50 [50]: 22.1 µM (inactive)
- GI50 [51]: 52.8 µM (inactive)
- GI50 [52]: 85.3 µM (inactive)
- GI50 [53]: 28.2 µM (inactive)
- GI50 [54]: 53.3 µM (inactive)
- GI50 [55]: 23.7 µM (inactive)
- GI50 [56]: > 100 µM (inactive)
- GI50 [57]: 15.8 µM (inactive)
- GI50 [58]: 7.94 µM (inactive)

Structure (SMILES): c1ccc(CCn2cncn2)cc1
- GI50 [1]: > 100 µM (inactive)
- GI50 [2]: > 100 µM (inactive)
- GI50 [4]: > 100 µM (inactive)
- GI50 [5]: > 100 µM (inactive)
- GI50 [6]: > 100 µM (inactive)
- GI50 [8]: > 100 µM (inactive)
- GI50 [9]: > 100 µM (inactive)
- GI50 [10]: > 100 µM (inactive)
- GI50 [11]: > 100 µM (inactive)
- GI50 [13]: > 100 µM (inactive)
- GI50 [14]: > 100 µM (inactive)
- GI50 [15]: > 100 µM (inactive)
- GI50 [16]: > 100 µM (inactive)
- GI50 [17]: > 100 µM (inactive)
- GI50 [18]: > 100 µM (inactive)
- GI50 [20]: > 100 µM (inactive)
- GI50 [21]: > 100 µM
- GI50 [22]: > 100 µM (inactive)
- GI50 [23]: > 100 µM (inactive)
- GI50 [24]: > 100 µM (inactive)
- GI50 [27]: > 100 µM (inactive)
- GI50 [28]: > 100 µM (inactive)
- GI50 [29]: > 100 µM (inactive)
- GI50 [30]: > 100 µM (inactive)
- GI50 [31]: > 100 µM (inactive)
- GI50 [32]: > 100 µM (inactive)
- GI50 [33]: > 100 µM (inactive)
- GI50 [34]: > 100 µM (inactive)
- GI50 [35]: > 100 µM (inactive)
- GI50 [36]: > 100 µM (inactive)
- GI50 [38]: > 100 µM (inactive)
- GI50 [39]: > 100 µM (inactive)
- GI50 [40]: > 100 µM (inactive)
- GI50 [42]: > 100 µM (inactive)
- GI50 [43]: > 100 µM (inactive)
- GI50 [44]: > 100 µM (inactive)
- GI50 [59]: > 100 µM (inactive)
- GI50 [45]: > 100 µM (inactive)
- GI50 [46]: > 100 µM (inactive)
- GI50 [48]: > 100 µM (inactive)
- GI50 [49]: > 100 µM (inactive)
- GI50 [50]: > 100 µM (inactive)
- GI50 [51]: > 100 µM (inactive)
- GI50 [52]: > 100 µM (inactive)
- GI50 [53]: > 100 µM (inactive)
- GI50 [54]: > 100 µM (inactive)
- GI50 [55]: > 100 µM (inactive)
- GI50 [56]: > 100 µM (inactive)
- GI50 [58]: > 100 µM (inactive)

Structure (SMILES): O=c1/c(=C/c2ccccc2O)sc2nc3ccccc3n12
- GI50 [1]: 43.2 µM (inactive)
- GI50 [2]: 45.6 µM (inactive)
- GI50 [3]: 45 µM (inactive)
- GI50 [5]: 32.2 µM (inactive)
- GI50 [6]: 29.7 µM (inactive)
- GI50 [7]: 21.2 µM (inactive)
- GI50 [8]: 40.5 µM (inactive)
- GI50 [9]: 47.9 µM (inactive)
- GI50 [10]: 15.3 µM (inactive)
- GI50 [11]: 34.3 µM (inactive)
- GI50 [13]: 35.5 µM (inactive)
- GI50 [14]: 55.8 µM (inactive)
- GI50 [15]: > 100 µM (inactive)
- GI50 [17]: 33.6 µM (inactive)
- GI50 [18]: 43.2 µM (inactive)
- GI50 [19]: 21.9 µM (inactive)
- GI50 [20]: 16.6 µM (inactive)
- GI50 [21]: 21.6 µM
- GI50 [22]: 80.7 µM (inactive)
- GI50 [23]: 18.1 µM (inactive)
- GI50 [24]: 23.1 µM (inactive)
- GI50 [25]: 49.4 µM (inactive)
- GI50 [26]: 53.2 µM (inactive)
- GI50 [27]: 41.2 µM (inactive)
- GI50 [29]: 23.6 µM (inactive)
- GI50 [30]: 24.4 µM (inactive)
- GI50 [32]: 52.1 µM (inactive)
- GI50 [33]: 80.4 µM (inactive)
- GI50 [34]: 84.1 µM (inactive)
- GI50 [35]: 27.4 µM (inactive)
- GI50 [36]: 38.7 µM (inactive)
- GI50 [37]: 35.5 µM (inactive)
- GI50 [38]: 16.3 µM (inactive)
- GI50 [39]: 16.9 µM (inactive)
- GI50 [40]: 47.3 µM (inactive)
- GI50 [41]: 32.3 µM (inactive)
- GI50 [42]: 19.7 µM (inactive)
- GI50 [44]: 35 µM (inactive)
- GI50 [59]: 43.7 µM (inactive)
- GI50 [45]: 29.9 µM (inactive)
- GI50 [46]: 82.4 µM (inactive)
- GI50 [47]: 34.6 µM (inactive)
- GI50 [48]: 4.9 µM (inactive)
- GI50 [49]: 31.3 µM (inactive)
- GI50 [51]: 46.8 µM (inactive)
- GI50 [52]: 30.7 µM (inactive)
- GI50 [53]: 41.8 µM (inactive)
- GI50 [54]: 33.9 µM (inactive)
- GI50 [55]: > 100 µM (inactive)
- GI50 [56]: 62.7 µM (inactive)
- GI50 [58]: 84.9 µM (inactive)
